# Test results: ChEMBL document CHEMBL1201862, “PubChem BioAssay data set” (2004)
# Calls of active or inactive are those of the source.
# Tests used:
# [1] = target: T1, Low molecular weight phosphotyrosine protein phosphatase (Homo sapiens, UniProt P24666); format: functional; conditions: read-out: IC50_Mean;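 note: Dose-response confirmation assay measuring inhibition of LMPTP enzyme activity by fluorescence intensity read-out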
# T1 sequence (P24666 whole entry): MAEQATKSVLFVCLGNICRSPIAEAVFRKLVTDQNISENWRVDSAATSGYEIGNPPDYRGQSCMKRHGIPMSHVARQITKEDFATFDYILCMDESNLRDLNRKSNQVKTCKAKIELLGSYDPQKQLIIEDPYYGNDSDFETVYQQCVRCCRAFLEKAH
# [2] = target: T2, Carboxy-terminal domain RNA polymerase II polypeptide A small phosphatase 1 (Homo sapiens, UniProt Q9GZU7); test: inhibitors of CTDSP1, concentration-response testing, biochemical assay, absorbance-based, actives from ultra-high-throughput screening (AID 540297); format: functional
# T2 sequence (Q9GZU7 whole entry): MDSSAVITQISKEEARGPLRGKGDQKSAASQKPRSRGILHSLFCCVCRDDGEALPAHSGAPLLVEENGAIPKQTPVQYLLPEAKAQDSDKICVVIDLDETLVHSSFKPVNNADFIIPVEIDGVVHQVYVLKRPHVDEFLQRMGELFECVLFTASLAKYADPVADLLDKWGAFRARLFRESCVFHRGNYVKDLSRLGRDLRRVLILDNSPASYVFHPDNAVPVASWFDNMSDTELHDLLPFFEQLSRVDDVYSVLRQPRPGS
# SN12K1 = test: cells; format: functional; conditions: Homo sapiens
# P388 = test: cells; format: functional; conditions: Mus musculus
# [3] = intracellular Trypanosoma cruzi inhibitors in host cells – cell-based, plate reader, cherry-pick samples, set 3, dose response (AID 651818); format: functional;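 note: compounds incubated with infected cells for about four days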
# [4] = A549 cell cytotoxicity, dose response, cytotoxicity control, plate reader, cherry-pick, antagonist series (AID 743412); format: functional, cell-based
# [5] = MC4R antagonists, dose response, counter-screen for LGR2 antagonist project, cell-based, plate reader, cherry pick (AID 743444); format: functional;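 note: transfected HEK 293 cells stimulated with alpha-MSH peptide; potency of inhibitors of the alpha-MSH evoked signal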
# [6] = HepG2 cell cytotoxicity, dose response, cytotoxicity control, plate reader, cherry-pick, antagonist series (AID 743416); format: functional, cell-based
# [7] = LGR2 antagonists, dose response, cell-based, HEK293, CRE-luciferase reporter, cherry pick, set 2 (AID 743343); format: functional;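 note: transfected cells were stimulated with diluted bursicon conditioned medium after compound addition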
# P388/ADR = test: cells; format: functional; conditions: Mus musculus
# Nonstructural protein 1 = Nonstructural protein 1 (Influenza A virus, UniProt Q194T2); format: functional, Influenza A virus (A/California/07/2009(H1N1))
# Nonstructural protein 1, sequence (Q194T2 whole entry): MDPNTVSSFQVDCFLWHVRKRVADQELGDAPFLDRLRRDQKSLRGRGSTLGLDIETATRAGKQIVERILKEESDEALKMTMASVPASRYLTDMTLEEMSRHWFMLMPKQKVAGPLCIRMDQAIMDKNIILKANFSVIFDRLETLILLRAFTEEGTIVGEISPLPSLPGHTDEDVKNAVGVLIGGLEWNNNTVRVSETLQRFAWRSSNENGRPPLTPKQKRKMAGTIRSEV
# [8] = inhibitors of SNCA 5'UTR-driven reporter translation, confirmation, H4 neuroglioma cells, luminescence (AID 1988); format: functional, cell-based
# [9] = inhibitors of firefly luciferase expression or activity, dose response, H4 neuroglioma cells, luminescence (AID 1990); format: functional, cell-based
# [10] = Luminescence Cell-Based Dose Response HTS to Identify Inhibitors of 5'UTR Stem-Loop Driven Prion Protein mRNA Translation in H4 Neuroglioblastoma Cells. [Related pubchem assays: 1827 (Project Summary), 1813 (Primary HTS)]; format: functional
# [11] = target: Glucose-6-phosphate 1-dehydrogenase (Homo sapiens, UniProt P11413); test: human G6PD enzyme inhibitors, dose response, selectivity assay for P. falciparum G6PD inhibitor project, biochemical, fluorescence (AID 504792); format: functional
# Glucose-6-phosphate 1-dehydrogenase, sequence (P11413 whole entry): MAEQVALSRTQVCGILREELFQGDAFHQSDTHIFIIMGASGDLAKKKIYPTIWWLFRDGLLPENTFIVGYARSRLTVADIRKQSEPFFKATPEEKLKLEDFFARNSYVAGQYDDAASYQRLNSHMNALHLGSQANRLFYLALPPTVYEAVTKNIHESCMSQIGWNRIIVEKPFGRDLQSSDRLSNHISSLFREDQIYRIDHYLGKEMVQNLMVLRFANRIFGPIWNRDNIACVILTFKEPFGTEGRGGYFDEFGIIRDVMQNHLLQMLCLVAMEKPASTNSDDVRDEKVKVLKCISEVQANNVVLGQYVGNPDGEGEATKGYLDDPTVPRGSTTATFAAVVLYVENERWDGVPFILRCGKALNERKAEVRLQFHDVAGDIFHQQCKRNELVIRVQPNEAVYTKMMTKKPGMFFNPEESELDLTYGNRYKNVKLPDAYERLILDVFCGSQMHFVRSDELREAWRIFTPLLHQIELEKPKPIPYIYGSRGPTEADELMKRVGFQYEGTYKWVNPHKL
# [12] = target: Glyceraldehyde-3-phosphate dehydrogenase (Homo sapiens, UniProt P04406)
# Glyceraldehyde-3-phosphate dehydrogenase, sequence (P04406 whole entry): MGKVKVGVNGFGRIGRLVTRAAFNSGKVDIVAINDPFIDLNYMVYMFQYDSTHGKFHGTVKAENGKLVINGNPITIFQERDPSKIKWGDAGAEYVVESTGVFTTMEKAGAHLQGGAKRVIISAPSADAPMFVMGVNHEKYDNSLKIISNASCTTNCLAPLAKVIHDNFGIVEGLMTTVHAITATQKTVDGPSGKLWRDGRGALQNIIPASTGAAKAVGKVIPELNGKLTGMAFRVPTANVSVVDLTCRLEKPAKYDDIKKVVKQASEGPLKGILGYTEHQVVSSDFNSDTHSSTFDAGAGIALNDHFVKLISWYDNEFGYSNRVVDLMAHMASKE
# [13] = target: T3, Corticotropin-releasing factor receptor 2/Corticotropin-releasing factor-binding protein (Homo sapiens, UniProt P24387+Q13324); test: Dose Response confirmation of uHTS hits for small molecule antagonists of the CRF-binding protein and CRF-R2 receptor complex.; format: functional; conditions: read-out: IC50_Mean
# T3 sequence (Q13324 whole entry): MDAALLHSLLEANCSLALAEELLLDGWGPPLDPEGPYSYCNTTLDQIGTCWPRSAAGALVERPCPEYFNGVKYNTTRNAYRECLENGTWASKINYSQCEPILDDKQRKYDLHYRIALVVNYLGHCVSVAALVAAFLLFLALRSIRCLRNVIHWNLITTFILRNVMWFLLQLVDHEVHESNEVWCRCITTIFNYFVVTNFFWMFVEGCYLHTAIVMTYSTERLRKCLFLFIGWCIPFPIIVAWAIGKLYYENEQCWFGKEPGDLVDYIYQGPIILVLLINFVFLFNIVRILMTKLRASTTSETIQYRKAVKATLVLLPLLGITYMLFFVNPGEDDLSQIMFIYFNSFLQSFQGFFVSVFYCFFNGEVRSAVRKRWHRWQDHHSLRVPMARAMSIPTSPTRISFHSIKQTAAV
# T3 sequence (P24387 whole entry): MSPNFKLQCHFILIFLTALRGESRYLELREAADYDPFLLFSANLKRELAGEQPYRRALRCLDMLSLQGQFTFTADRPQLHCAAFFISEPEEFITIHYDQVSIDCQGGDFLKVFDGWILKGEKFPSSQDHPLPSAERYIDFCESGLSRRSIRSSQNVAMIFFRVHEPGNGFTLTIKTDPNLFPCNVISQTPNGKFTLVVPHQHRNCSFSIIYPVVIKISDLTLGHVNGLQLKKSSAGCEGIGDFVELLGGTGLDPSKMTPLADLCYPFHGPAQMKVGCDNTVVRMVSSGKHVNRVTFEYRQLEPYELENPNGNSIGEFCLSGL
# [14] = target: T3, Corticotropin-releasing factor receptor 2/Corticotropin-releasing factor-binding protein; test: activators of CRF receptor 2 with binding protein – uHTS hits, confirmation (AID 602473); format: functional; conditions: read-out: EC50_Mean
# [15] = target: T4, Tyrosyl-DNA phosphodiesterase 2 (Homo sapiens, UniProt O95551); test: human TDP2 enzyme inhibitors, dose response, biochemical, epi absorbance, IC50 (AID 743297)
# T4 sequence (O95551 whole entry): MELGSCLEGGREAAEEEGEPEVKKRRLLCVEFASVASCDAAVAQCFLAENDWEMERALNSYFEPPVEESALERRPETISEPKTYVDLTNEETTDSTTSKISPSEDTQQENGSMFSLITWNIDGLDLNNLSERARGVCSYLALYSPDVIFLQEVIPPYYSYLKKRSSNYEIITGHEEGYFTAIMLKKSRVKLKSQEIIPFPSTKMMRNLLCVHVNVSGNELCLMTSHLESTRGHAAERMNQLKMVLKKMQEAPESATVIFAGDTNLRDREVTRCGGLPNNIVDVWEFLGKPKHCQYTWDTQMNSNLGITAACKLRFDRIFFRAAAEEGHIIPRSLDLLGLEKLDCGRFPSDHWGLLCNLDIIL
# Estrogen receptor beta [16] = target: T5, Estrogen receptor beta (Homo sapiens, UniProt Q92731);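 note: recombinant ER-beta bound to coactivator SRC1 peptide in presence of estradiol agonist; inhibitors block coactivator peptide binding and lower the FRET signal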
# T5 sequence (Q92731 whole entry): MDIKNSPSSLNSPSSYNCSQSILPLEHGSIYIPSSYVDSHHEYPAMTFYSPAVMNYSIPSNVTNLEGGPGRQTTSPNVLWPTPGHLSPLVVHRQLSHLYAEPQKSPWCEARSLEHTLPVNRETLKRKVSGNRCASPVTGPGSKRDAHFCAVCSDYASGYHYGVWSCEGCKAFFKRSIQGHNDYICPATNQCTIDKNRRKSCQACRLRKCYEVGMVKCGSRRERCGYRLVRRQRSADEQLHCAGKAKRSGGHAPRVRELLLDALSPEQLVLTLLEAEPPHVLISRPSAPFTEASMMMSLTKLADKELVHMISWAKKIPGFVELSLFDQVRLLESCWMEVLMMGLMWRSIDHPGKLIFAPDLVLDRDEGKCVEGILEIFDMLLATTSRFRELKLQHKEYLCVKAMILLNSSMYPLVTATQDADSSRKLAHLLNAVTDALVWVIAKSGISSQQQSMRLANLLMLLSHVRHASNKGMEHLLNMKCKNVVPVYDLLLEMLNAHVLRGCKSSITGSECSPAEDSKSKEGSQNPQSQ
# Estrogen receptor beta [17] = target: T5, Estrogen receptor beta; test: ERβ–SRC-3 coactivator interaction inhibitors, confirmation, orthogonal assay, biochemical, ELISA, streptavidin-HRP readout (AID 1060)
# [18] = Luminescent dose response cell-based high throughput screening assay for inhibitors of the Janus kinase 2 mutant JAK2V617F. [Related pubchem assays: 1446 (Primary screen.), 1521 (Confirmation assay.), 1486 (Counter screen.)]; format: functional
# Large T antigen = Large T antigen (Simian virus 40, UniProt P03070); format: functional, Betapolyomavirus macacae;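 note: Confirmatory-stage PubChem screen for compounds that inhibit SV40 T antigen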
# Large T antigen, sequence (P03070 whole entry): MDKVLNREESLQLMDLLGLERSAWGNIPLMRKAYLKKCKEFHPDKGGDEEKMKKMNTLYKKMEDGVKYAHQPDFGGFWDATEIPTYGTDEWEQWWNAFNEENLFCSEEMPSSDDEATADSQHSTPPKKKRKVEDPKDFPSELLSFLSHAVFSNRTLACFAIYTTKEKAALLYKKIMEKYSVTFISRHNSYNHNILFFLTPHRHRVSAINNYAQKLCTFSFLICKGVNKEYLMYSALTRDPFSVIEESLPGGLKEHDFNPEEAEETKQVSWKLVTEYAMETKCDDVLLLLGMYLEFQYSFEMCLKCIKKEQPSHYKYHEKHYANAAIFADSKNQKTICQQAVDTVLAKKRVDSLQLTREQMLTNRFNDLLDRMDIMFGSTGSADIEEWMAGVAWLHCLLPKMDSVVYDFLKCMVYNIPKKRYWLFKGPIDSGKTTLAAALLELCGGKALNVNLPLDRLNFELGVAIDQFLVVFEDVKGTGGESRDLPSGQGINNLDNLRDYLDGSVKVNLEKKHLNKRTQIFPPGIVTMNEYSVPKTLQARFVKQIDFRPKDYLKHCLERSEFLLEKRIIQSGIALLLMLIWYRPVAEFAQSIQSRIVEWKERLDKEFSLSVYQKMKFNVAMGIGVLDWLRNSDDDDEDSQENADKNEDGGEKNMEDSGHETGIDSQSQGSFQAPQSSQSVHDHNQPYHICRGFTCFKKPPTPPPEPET
# Cytochrome P450 2D6 = Cytochrome P450 2D6 (Homo sapiens, UniProt P10635);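 note: CYP2D6 member of a cytochrome P450 panel assay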
# Cytochrome P450 2D6, sequence (P10635 whole entry): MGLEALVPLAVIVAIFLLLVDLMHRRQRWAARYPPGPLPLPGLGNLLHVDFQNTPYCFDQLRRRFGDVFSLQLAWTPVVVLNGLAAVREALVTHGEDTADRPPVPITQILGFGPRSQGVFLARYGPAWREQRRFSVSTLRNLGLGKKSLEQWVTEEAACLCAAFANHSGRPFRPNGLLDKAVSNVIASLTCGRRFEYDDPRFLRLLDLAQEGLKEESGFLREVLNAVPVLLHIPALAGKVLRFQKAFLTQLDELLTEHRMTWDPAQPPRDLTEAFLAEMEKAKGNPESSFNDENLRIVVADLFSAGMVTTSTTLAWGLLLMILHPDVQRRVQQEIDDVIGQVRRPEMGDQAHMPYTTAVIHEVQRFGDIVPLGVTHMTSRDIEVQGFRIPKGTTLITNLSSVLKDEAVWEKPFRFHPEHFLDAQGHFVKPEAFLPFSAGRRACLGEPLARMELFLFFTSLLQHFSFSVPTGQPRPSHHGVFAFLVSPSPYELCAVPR
# H9c2 = test: cells; format: functional, cell-based; conditions: Rattus norvegicus, H9c2, Myocardium;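 note: confirmatory concentration-response retest of ultra-high-throughput screening hits for modulation of myocardial damage; cell death induced by hydrogen peroxide oxidative stress; compound pretreatment for 60 min then peroxide exposure for 2 h; potency is for protecting the cells against peroxide damage rather than for killing them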
# [19] = HEK293 cell cytotoxicity, dose response, cytotoxicity control, plate reader, cherry-picked samples (AID 743446); format: functional, cell-based
structure (smiles),measurement,setting,value
O=C(Nc1ccc(S(=O)(=O)Nc2nccs2)cc1)c1nn(-c2ccc(F)cc2)ccc1=O,IC50,[1],22.3 µM (inactive)
same,IC50,[2],4.55 µM (active)
CCOC(=O)Nc1ccc2c(c1)N(C(=O)CCN(CC)CC)c1ccccc1S2 [ETHACIZINE],GI50,SN12K1,33.6 µM (inactive)
same,GI50,P388,9.46 µM (inactive)
C[C@@H]1CN([C@H](C)CO)C(=O)c2cccc(NC(=O)Nc3ccc4c(c3)OCO4)c2O[C@@H]1CN(C)Cc1ccc(C(=O)Nc2ccccc2N)cc1,AC50,[3],2.84 µM (active)
C[C@H](CO)N1C[C@H](C)[C@H](CN(C)Cc2ccncc2)Oc2ncc(C#CCC3CCCCC3)cc2C1=O,AC50,[4],16.1 µM (active)
same,AC50,[5],63.3 µM (active)
same,AC50,[6],15.3 µM (active)
same,AC50,[7],30 µM (active)
C[C@H]1CN([C@@H](C)CO)C(=O)Cc2cc(NC(=O)Nc3ccc4c(c3)OCO4)ccc2O[C@H]1CN(C)Cc1ccc(C(F)(F)F)cc1,AC50,[3],7.92 µM (active)
Cc1cc(N2CCN(C(=O)Nc3ccccc3C#N)CC2)c2ccccc2n1,IC50,[1],21.3 µM (inactive)
CC1=C2C(O)C(C(C)C(=O)NC(C)C)CCC2(C)C=CC1=O (centres undefined),GI50,P388/ADR,> 100 µM (inactive)
same,GI50,SN12K1,> 100 µM (inactive)
same,GI50,P388,> 100 µM (inactive)
O=C(CSc1n[nH]c(-c2ccccn2)n1)Nc1ccc(F)cc1,IC50,Nonstructural protein 1,5.65 µM (active)
same,EC50,[8],> 120 µM (not active)
same,EC50,[9],12.6 µM (active)
same,EC50,[10],11.5 µM (active)
Cc1ccccc1N/C(SCc1cccc(Br)c1)=C(/C#N)C(N)=O,IC50,[11],> 80 µM (inactive)
CC1CN(c2ccccc2)NC1=O (centres undefined),IC50,[11],41.2 µM (inactive)
CN(C)CC1CCCC(CN(C)C)C1=O (centres undefined),GI50,P388/ADR,0.0164 µM (active)
same,GI50,SN12K1,16.3 µM (inactive)
same,GI50,P388,0.0614 µM (active)
CC(=O)Nc1cc2c(cc1[N+](=O)[O-])-c1ccccc1C2O (centres undefined),IC50,[11],> 80 µM (inactive)
Cc1ccccc1OCC(=O)NCC(=O)OCC(=O)c1ccc([N+](=O)[O-])cc1,IC50,[11],> 80 µM (inactive)
COc1cccc(N2C(=O)C(Cl)=C(N3CCN(Cc4ccccc4)CC3)C2=O)c1,IC50,[12],> 50 µM (inconclusive)
COC1(OC)C=CC(=O)C=C1NC(=O)c1ccccc1OC(C)=O,IC50,[13],> 47.1 µM (inactive)
same,IC50,[11],> 80 µM (inactive)
same,EC50,[14],> 53 µM (inactive)
Cc1ccc(N2C(=O)C3CSCN3C2=O)cc1 (centres undefined),GI50,P388/ADR,> 100 µM (inactive)
same,GI50,SN12K1,> 100 µM (inactive)
same,GI50,P388,> 100 µM (inactive)
CC1=NN(c2ccc(C)c(C)c2)C(=O)/C1=C/c1ccc2c(c1)n(C)c(=O)n2C,IC50,[15],> 128 µM (inactive)
COCCn1c(C)cc(C(=O)COC(=O)c2cc3c(s2)CCC3)c1C,IC50,[2],7.35 µM (active)
same,IC50,Estrogen receptor beta [16],> 50 µM (not active)
same,IC50,[13],> 47.1 µM (inactive)
same,IC50,Estrogen receptor beta [17],14.9 µM (active)
same,EC50,[14],> 53 µM (inactive)
Cc1noc(C)c1S(=O)(=O)Nc1ccc2c(c1)CC(=O)N([C@H](C)CO)C[C@@H](C)[C@H](CN(C)Cc1ccc(Oc3ccccc3)cc1)O2,AC50,[3],6.34 µM (active)
Oc1ccc(/C=N/N2CCN(C3c4ccccc4-c4ccccc43)CC2)cc1O,IC50,[18],3.62 µM (active)
O=C1C(Cl)=C(N2CCN(Cc3ccc4c(c3)OCO4)CC2)C(=O)N1c1ccnc(Cl)c1,IC50,[12],> 50 µM (inconclusive)
CC(=O)OC1CCC2(C)C3CCC4(C)C(c5ccc(=O)oc5)CC5OC54C3CCC2(O)C1 (centres undefined),GI50,P388/ADR,> 200 µM (inactive)
same,GI50,SN12K1,0.948 µM (active)
same,GI50,P388,> 200 µM (inactive)
C[C@H](CO)N1C[C@H](C)[C@H](CN(C)Cc2ccc(-c3ccccc3)cc2)Oc2c(NC(=O)Nc3ccc(C(F)(F)F)cc3)cccc2C1=O,AC50,[3],6 µM (active)
O=C(Nc1ccccn1)c1sc2cc([N+](=O)[O-])ccc2c1Cl,IC50,[11],> 80 µM (inactive)
Nc1ccc2[nH]c(CCCCCCCCc3nc4cc(N)ccc4[nH]3)nc2c1,IC50,[1],11.4 µM (active)
same,IC50,Large T antigen,18.7 µM (active)
CCN(CC)CC[n+]1ccc2c(C)c3[nH]c4ccc(O)cc4c3c(C)c2c1,GI50,P388/ADR,2.21 µM (inactive)
same,AC50,Cytochrome P450 2D6,6.31 µM (inconclusive)
same,GI50,SN12K1,0.948 µM (active)
same,GI50,P388,0.012 µM (active)
O=C(Nc1nc(-c2ccccn2)cs1)c1cc(S(=O)(=O)N2CCOCC2)ccc1F,IC50,Nonstructural protein 1,7.21 µM (active)
same,IC50,H9c2,39.8 µM (inactive)
COc1ccc(-c2cc(-c3nnc(COC(=O)C4CC4)o3)c3ccccc3n2)cc1OC,AC50,[4],> 52 µM (inactive)
same,AC50,[19],> 52 µM (inactive)
same,IC50,H9c2,> 79 µM (inactive)
same,AC50,[7],43.2 µM (active)
Cc1c(N/N=C2\C(=O)NC(=O)N(c3ccc(Br)cc3)C2=O)c(=O)n(-c2ccccc2)n1C,IC50,Nonstructural protein 1,6.25 µM (active)
